Like-named read-outs stand apart in the source and are kept apart here. Where a SMILES comes first, the peptide text is derived from it. [ ]: non-standard residue; d: D form.
Legend:
MC1R = target: T1, MC1R (Mus musculus, UniProt Q01727); assay: Competitive displacement assay on MC1R-positive B16F10 cells vs [125I]I-NDP; assay type: binding, murine
T1 construct: host or cells: B16F10 murine melanoma cells (whole cells)
Method: (§1) As in vitro receptor affinities represent an important parameter for the in vivo tumor uptake of radiotracers, the binding affinities of 1–6 were determined to both target receptors—integrin αvβ3 and the MC1R—in competitive displacement assays.
(§2) Murine melanoma cells (B16F10) and human glioblastoma cells (U87MG) as well as Dulbecco’s Modified Eagle’s Medium (DMEM) and Eagle’s Minimum Essential Medium (EMEM) were purchased from ATCC (Wesel, Germany). Fetal calf serum (FCS) was obtained from Bio&SELL (Feucht, Germany); phosphate-buffered saline (PBS), 1,10-phenanthroline, tris(hydroxymethyl)aminomethane hydrochloride (Tris·HCl) and manganese chloride (MnCl2) were obtained from Sigma-Aldrich (Taufkirchen, Germany); penicillin/streptomycin (pen/strep) and 0.25% Trypsin with 0.02% EDTA-solution in PBS were obtained from Gibco (Schwerte, Germany); 2-(4-(2-hydroxyethyl)-1-piperazinyl)-ethanesulfonic acid (HEPES) was obtained from Gerbu (Heidelberg, Germany); bovine serum albumin (BSA), sodium chloride (NaCl), calcium chloride (CaCl2) and magnesium chloride (MgCl2) were obtained from Carl Roth (Karlsruhe, Germany). [^125I]I-NDP (NEX352, 81.4 GBq/μmol) and [^125I]I-echistatin (NEX083, 81.4 GBq/μmol) were purchased from PerkinElmer (Rodgau, Germany). γ-counting was performed using a 2480 Wizard^2 gamma counter system from PerkinElmer.
(§3) To determine the binding affinity to the respective receptor, competitive displacement studies were performed on MC1R-expressing B16F10 and on integrin αvβ3-expressing U87MG cells. Each compound was evaluated at least three times, each experiment being performed in triplicate. As radioligands, [^125I]I-NDP (81.4 GBq/μmol) and [^125I]I-echistatin (81.4 GBq/μmol) were used as competitors. First, the Millipore MultiScreen 96-well filter plate was incubated with 200 μL/well of a BSA/PBS (1/99, w/v) solution at 25 °C for 1 h. After preparing the binding buffers (DMEM with 25 mM HEPES, 0.3 mM 1,10-phenanthroline and 0.2% BSA; EMEM with 20 mM Tris·HCl, 150 mM NaCl, 2 mM CaCl2, 1 mM MgCl2, 1 mM MnCl2 and 0.1% BSA), the dilution series of the HBPLs 1–6 (0.04–4 μM and 2–400 μM) and the reference agents 36–39 (0.01–1 μM and 0.04–400 μM) were prepared in the respective binding buffer. The solution of the respective radioligand was prepared by adding 55–75 kBq of the respective ^125I-labeled competitor to 3.5 mL of binding buffer. The respective cells were harvested and re-suspended in the binding buffer to give a cell concentration of 2 × 10^6/mL. After the BSA solution was filtered using the Millipore Multiscreen vacuum manifold, 50 μL of a cell suspension containing 10^5 cells were seeded in each well. Subsequently, 25 μL of the ^125I-labeled competitor solution (0.018 kBq/μL) and 25 μL of the respective compound to be tested were added. The compound to be tested was added in eleven increasing concentrations, whereas the 12th well contained no test compound to ensure the 100% binding of the ^125I-labeled competitor. After incubation of the plate for another hour at 25°C, the solution was filtrated using the Millipore Multiscreen vacuum manifold, and the cells were washed three times with cold PBS (1 × 200 μL, 2 × 100 μL). Using a Millipore MultiScreen disposable punch and a Millipore MultiScreen punch kit, the filters of the well plate were collected in γ-counter tubes separately and measured by γ-counting. The determination of the half-maximal inhibitory concentration (IC50) values was performed by fitting the obtained data via nonlinear regression using GraphPad Prism (v6.05).

integrin αvβ3 = target: T2, integrin αvβ3 (Homo sapiens, UniProt P05106+P06756); assay: Competitive displacement assay on integrin αvβ3-positive U87MG cells vs [125I]I-echistatin; assay type: binding
T2 construct: host or cells: U87MG human glioblastoma cells (whole cells)
Method: as §1, §2, §3

CCCC[C@H](NC(=O)CNC(=O)CNC(=O)CCOCCOCCC(=O)NCCCN(CCCNC(=O)CCOCCOCCC(=O)NCCCC[C@@H]1NC(=O)[C@@H](Cc2ccccc2)NC(=O)[C@H](CC(=O)O)NC(=O)CNC(=O)[C@H](CCCNC(=N)N)NC1=O)CC(=O)N[C@@H](CCCCNC(=O)CCC[N+](C)(C)Cc1ccc([Si](F)(C(C)(C)C)C(C)(C)C)cc1)C(N)=O)C(=O)N[C@H]1CC(=O)NCCCC[C@@H](C(N)=O)NC(=O)[C@H](Cc2c[nH]c3ccccc23)NC(=O)[C@H](CCCNC(=N)N)NC(=O)[C@@H](Cc2ccccc2)NC(=O)[C@H](Cc2c[nH]cn2)NC1=O [HBPL 1, SiFAlin-APG-PEG1-c(RGDfK)/GG-Nle-c(DHfRWK)]
IC50 (MC1R): 1.74 ± 0.25 nM
IC50 (integrin αvβ3): 2880 ± 757 nM

CCCC[C@H](NC(=O)CNC(=O)CNC(=O)CCOCCOCCOCCOCCC(=O)NCCCN(CCCNC(=O)CCOCCOCCOCCOCCC(=O)NCCCC[C@@H]1NC(=O)[C@@H](Cc2ccccc2)NC(=O)[C@H](CC(=O)O)NC(=O)CNC(=O)[C@H](CCCNC(=N)N)NC1=O)CC(=O)N[C@@H](CCCCNC(=O)CCC[N+](C)(C)Cc1ccc([Si](F)(C(C)(C)C)C(C)(C)C)cc1)C(N)=O)C(=O)N[C@H]1CC(=O)NCCCC[C@@H](C(N)=O)NC(=O)[C@H](Cc2c[nH]c3ccccc23)NC(=O)[C@H](CCCNC(=N)N)NC(=O)[C@@H](Cc2ccccc2)NC(=O)[C@H](Cc2c[nH]cn2)NC1=O [HBPL 2, SiFAlin-APG-PEG3-c(RGDfK)/GG-Nle-c(DHfRWK)]
IC50 (MC1R): 0.99 ± 0.11 nM
IC50 (integrin αvβ3): 1300 ± 288 nM

CCCC[C@H](NC(=O)CNC(=O)CNC(=O)CCOCCOCCOCCOCCOCCOCCC(=O)NCCCN(CCCNC(=O)CCOCCOCCOCCOCCOCCOCCC(=O)NCCCC[C@@H]1NC(=O)[C@@H](Cc2ccccc2)NC(=O)[C@H](CC(=O)O)NC(=O)CNC(=O)[C@H](CCCNC(=N)N)NC1=O)CC(=O)N[C@@H](CCCCNC(=O)CCC[N+](C)(C)Cc1ccc([Si](F)(C(C)(C)C)C(C)(C)C)cc1)C(N)=O)C(=O)N[C@H]1CC(=O)NCCCC[C@@H](C(N)=O)NC(=O)[C@H](Cc2c[nH]c3ccccc23)NC(=O)[C@H](CCCNC(=N)N)NC(=O)[C@@H](Cc2ccccc2)NC(=O)[C@H](Cc2c[nH]cn2)NC1=O [HBPL 3, SiFAlin-APG-PEG5-c(RGDfK)/GG-Nle-c(DHfRWK)]
IC50 (MC1R): 3.44 ± 0.09 nM
IC50 (integrin αvβ3): 1910 ± 70 nM

CCCC[C@H](NC(=O)CNC(=O)CNC(=O)CCOCCOCCOCCOCCOCCOCCOCCOCCOCCC(=O)NCCCN(CCCNC(=O)CCOCCOCCOCCOCCOCCOCCOCCOCCOCCC(=O)NCCCC[C@@H]1NC(=O)[C@@H](Cc2ccccc2)NC(=O)[C@H](CC(=O)O)NC(=O)CNC(=O)[C@H](CCCNC(=N)N)NC1=O)CC(=O)N[C@@H](CCCCNC(=O)CCC[N+](C)(C)Cc1ccc([Si](F)(C(C)(C)C)C(C)(C)C)cc1)C(N)=O)C(=O)N[C@H]1CC(=O)NCCCC[C@@H](C(N)=O)NC(=O)[C@H](Cc2c[nH]c3ccccc23)NC(=O)[C@H](CCCNC(=N)N)NC(=O)[C@@H](Cc2ccccc2)NC(=O)[C@H](Cc2c[nH]cn2)NC1=O [HBPL 4, SiFAlin-APG-PEG8-c(RGDfK)/GG-Nle-c(DHfRWK)]
IC50 (MC1R): 6 ± 0.47 nM
IC50 (integrin αvβ3): 2030 ± 323 nM

CCCC[C@H](NC(=O)CNC(=O)CNC(=O)COCC(=O)NCCCN(CCCNC(=O)COCC(=O)NCCCC[C@@H]1NC(=O)[C@@H](Cc2ccccc2)NC(=O)[C@H](CC(=O)O)NC(=O)CNC(=O)[C@H](CCCNC(=N)N)NC1=O)CC(=O)N[C@@H](CCCCNC(=O)CCC[N+](C)(C)Cc1ccc([Si](F)(C(C)(C)C)C(C)(C)C)cc1)C(N)=O)C(=O)N[C@H]1CC(=O)NCCCC[C@@H](C(N)=O)NC(=O)[C@H](Cc2c[nH]c3ccccc23)NC(=O)[C@H](CCCNC(=N)N)NC(=O)[C@@H](Cc2ccccc2)NC(=O)[C@H](Cc2c[nH]cn2)NC1=O [HBPL 5, SiFAlin-APG-DIG-c(RGDfK)/GG-Nle-c(DHfRWK)]
IC50 (MC1R): 2.05 ± 0.35 nM
IC50 (integrin αvβ3): 5900 ± 722 nM

CCCC[C@H](NC(=O)CNC(=O)CNC(=O)[C@H](CCC(=O)O)NC(=O)CNC(=O)[C@H](CCC(=O)O)NC(=O)CNC(=O)[C@H](CCC(=O)O)NC(=O)C(=O)NCCCN(CCCNC(=O)C(=O)N[C@@H](CCC(=O)O)C(=O)NCC(=O)N[C@@H](CCC(=O)O)C(=O)NCC(=O)N[C@@H](CCC(=O)O)C(=O)NCCCC[C@@H]1NC(=O)[C@@H](Cc2ccccc2)NC(=O)[C@H](CC(=O)O)NC(=O)CNC(=O)[C@H](CCCNC(=N)N)NC1=O)CC(=O)N[C@@H](CCCCNC(=O)CCC[N+](C)(C)Cc1ccc([Si](F)(C(C)(C)C)C(C)(C)C)cc1)C(N)=O)C(=O)N[C@H]1CC(=O)NCCCC[C@@H](C(N)=O)NC(=O)[C@H](Cc2c[nH]c3ccccc23)NC(=O)[C@H](CCCNC(=N)N)NC(=O)[C@@H](Cc2ccccc2)NC(=O)[C@H](Cc2c[nH]cn2)NC1=O [HBPL 6, SiFAlin-APG-Ox-EGEGE-c(RGDfK)/GG-Nle-c(DHfRWK)]
IC50 (MC1R): 4.18 ± 0.32 nM
IC50 (integrin αvβ3): > 100000 nM
IC50 (U87MG) (integrin αvβ3; integrin αvβ3-positive U87MG cells, competitor [125I]I-echistatin, mean ± SD): could not be determined

N=C(N)NCCC[C@@H]1NC(=O)[C@H](CS)NC(=O)[C@@H](Cc2ccccc2)NC(=O)[C@H](CC(=O)O)NC(=O)CNC1=O [c(RGDfC), reference compound] (cyclo(RGD[dF]C))
IC50 (integrin αvβ3; integrin αvβ3-positive U87MG cells, competitor [125I]I-echistatin, mean ± SD, read-out: IC50 (U87MG)): 1490 ± 210 nM

N=C(N)NCCC[C@@H]1NC(=O)[C@H](CCCCN)NC(=O)[C@@H](Cc2ccccc2)NC(=O)[C@H](CC(=O)O)NC(=O)CNC1=O [c(RGDfK), cyclic Arg-Gly-Asp-DPhe-Lys, reference compound]
receptor-specific binding to MC1R (MC1R; B16F10 cells, same conditions as IC50 assay (Figure S92)): no receptor-specific binding

Gly-Gly-Nle-cyclic Asp-His-DPhe-Arg-Trp-Lys [GG-Nle-c(DHfRWK), reference compound]
receptor-specific binding to integrin αvβ3 (integrin αvβ3; U87MG cells, same conditions as IC50 assay (Figure S92)): no receptor-specific binding

NDP: superpotent synthetic analog of the endogenous ligand α-MSH; reference and blocking substance [reference compound]
IC50 (MC1R; MC1R-positive B16F10 cells, competitor [125I]I-NDP, mean ± SD, read-out: IC50 (B16F10)): 0.17 ± 0.04 nM
